Source: US6586596B2, “Acetylcholine enhancers” (priority 1998, dated 2003)
Like-named read-outs stand apart in the source and are kept apart here.

Tests used:
[1] = system: scopolamine-induced spatial memory deficit; experiment: Eight-arm radial maze, scopolamine-induced deficit in spatial memory; type: in vivo, male Wistar rats; conditions: oral dose 0.03~0.3 mg/kg; scopolamine 0.5 mg/kg i.p.
Procedure: Using male Wistar rats, the anti-amnestic effects of Cm.A on spatial cognition was evaluated using an eight-arm radial maze task. After repeated trials for spatial cognition, memory-established rats (which had more than 7 correct choices and less than one error) were utilized.

[2] = system: extracellular levels of ACh in striatum; experiment: ACh release in striatum, microdialysis in freely moving rats; type: in vivo; conditions: for ACh content in perfusate increased up to: striatum, young rats (2 month-old Wistar)
Procedure: ACh content in perfusate obtained from striatum (Bregma, A: 0.2 mm, L: 3.0 mm, H: 4.0 mm) of brain were continuously detected by means of HPLC and ECD through the microdialysis system using freely moving rats. See Messamore, E., et al, 32 Neuropharmacol. […] After an equilibration period of more than 2 hours, five fractions were allowed to obtain basal ACh content. Compounds were injected i.p., and thereafter, a microdialytic analysis was conducted for 3 hours.

[3] = target: T1, 5HT3 receptor (Rattus norvegicus, UniProt P35563); experiment: Ex vivo binding of 5HT3 receptors, (3H)-zacopride autoradiography of brain sections; type: in vivo, Sprague-Dawley rats; conditions: 10 mg/kg i.p., 30 minutes, amygdala, 0.5 nM (3H)-zacopride
T1 construct: from tissue; host or cells: rat brain sections (amygdala)
T1 sequence (P35563 24-483): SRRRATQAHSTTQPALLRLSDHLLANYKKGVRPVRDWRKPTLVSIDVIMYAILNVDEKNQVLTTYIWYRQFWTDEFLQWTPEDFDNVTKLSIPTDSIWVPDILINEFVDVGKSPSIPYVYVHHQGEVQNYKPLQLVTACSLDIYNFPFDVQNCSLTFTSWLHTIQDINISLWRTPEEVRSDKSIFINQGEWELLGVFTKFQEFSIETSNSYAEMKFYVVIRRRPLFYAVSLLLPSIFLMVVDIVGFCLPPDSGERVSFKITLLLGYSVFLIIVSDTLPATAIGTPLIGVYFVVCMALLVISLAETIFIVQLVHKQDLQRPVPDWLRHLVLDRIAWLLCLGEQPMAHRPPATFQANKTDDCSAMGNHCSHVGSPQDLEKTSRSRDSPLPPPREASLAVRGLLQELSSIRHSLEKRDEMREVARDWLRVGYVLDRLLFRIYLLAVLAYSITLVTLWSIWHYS
Procedure: Animals (Sprague-Dawley rats) were injected intraperitoneally with 10 mg/kg Cm. A (in 90% ethanol, 10% water, vehicle) (n=3) or vehicle (n=3). After thirty minutes animals were sacrificed and brains were rapidly dissected and frozen in isopentane maintained at −42° C. Sections (horizontal and coronal) were prepared on a cryostat and maintained at −20° C.
Brain sections were removed from storage and thawed at room temperature for 30 minutes. Total 5HT3 receptor binding was measured in sections incubated with 0.5 nM (^3H)-zacopride (Amerhsam; zacorpide is a 5-HT3 selective ligand) in 50 mM HEPES/TRIS buffer. Nonspecific binding was determined in adjacent sections incubated in the presence of radioligand and 500 nM 5-HT. After a 10 minute incubation at room temperature, sections were washed in icecold buffer (2×1 minute) followed by a 10 second rinse in ice-cold distilled water. Sections were then dried in a stream of cold air overnight. After drying, sections were exposed to x-ray film (Kodak Hyperfilm) and exposed for 4 months.
Autoradiograms were quantified using an automated image analysis system, DAGE camera IMAGE software. Mean optical density measurements were obtained from four individual measurements per group, control (vehicle injected) and Cm. A; background measurements were obtained from an area of x-ray on which no tissue was exposed. […]

[4] = target: T2, AChE (Rattus norvegicus, UniProt P37136); type: in vivo; conditions: 1 hour after dosing
T2 construct: from tissue; host or cells: rat brain (hippocampus, striatum, frontal cortex, parietal cortex)
T2 sequence (P37136 32-614): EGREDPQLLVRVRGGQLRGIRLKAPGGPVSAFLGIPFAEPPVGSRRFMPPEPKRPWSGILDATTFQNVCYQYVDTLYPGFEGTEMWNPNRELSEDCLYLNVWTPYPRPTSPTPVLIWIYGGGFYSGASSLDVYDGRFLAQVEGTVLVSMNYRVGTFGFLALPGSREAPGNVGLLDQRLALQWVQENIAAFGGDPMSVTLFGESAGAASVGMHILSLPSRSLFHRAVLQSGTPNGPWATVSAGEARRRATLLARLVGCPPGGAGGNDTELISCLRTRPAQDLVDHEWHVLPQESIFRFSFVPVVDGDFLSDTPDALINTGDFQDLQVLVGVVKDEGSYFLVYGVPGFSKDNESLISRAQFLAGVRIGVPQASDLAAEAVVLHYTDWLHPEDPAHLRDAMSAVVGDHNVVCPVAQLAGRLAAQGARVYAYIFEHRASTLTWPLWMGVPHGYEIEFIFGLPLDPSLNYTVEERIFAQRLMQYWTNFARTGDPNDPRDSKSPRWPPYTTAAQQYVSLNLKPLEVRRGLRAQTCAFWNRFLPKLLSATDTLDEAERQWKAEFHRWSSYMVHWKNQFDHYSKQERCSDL
Procedure: After 1 hour, rats were sacrificed and brains were isolated and divided into several portions. AChE activity in preparations from hippocampus, striatum, frontal cortex and parietal cortex was determined by Ellman's method.

[5] = system: BF-lesioned rats; experiment: Water maze, BF lesion-induced deficit in spatial learning; conditions: oral; Cm.A 0.3, 1.0 and 3.0 mg/kg/day, THA 1.0 mg/kg/day, E2020 0.3 and 1.0 mg/kg/day
Procedure: For each training trial, the rat was placed in the water (22° C.) such that the animal faced the wall of a circular pool (150 cm in diameter, 45 cm in height), and started at one of five starting points (selected randornly). In each trial, the latency period to escape onto the hidden platform (fixed in the middle of one quadrant, 2 cm below the surface of water) was recorded. These procedures were repeated once or twice a day during the experimental period.

[6] = system: Cynomologous monkeys; experiment: Hepatotoxic analysis, four-week oral study; type: in vivo; conditions: oral; for Clinical signs vomiting: four weeks (10, 5, 10 mg/kg/day regimens); for Clinical signs vomiting: key: − no remarkable change; ↑ increase; ↓ decrease; + slight; ++ severe (diarrhea)
Procedure: During the testing period, these animals were dosed with three different regimens: first, animals were dosed with 10 mg/kg/day for 7 days, followed by 32 days-washout period, second, animals were dosed with 5 mg/kg/day for 14 days, and thereafter the animals were dosed with 10 mg/kg/day for 7 days. The following parameters were examined: body weight, clinical signs, food consumption, blood biochemistry (GOT, GPT, ALP, LDH, γ-GTP, ChE, Bil, T.Pro, Alb, A/G ratio, T.Cho, NEFA, TG).

Question: `COc1c2c(nc3ccccc13)CN(CCC1CCN(Cc3ccccc3)CC1)C2=O` [Cm.A, 2-[2-(1-benzylpiperizin-4-yl)ethyl]-2,3-dihydro-9-methoxy-1H-pyrrolo[3,4-b]quinolin-1-one hemifumarate] was tested. Which “deficit of spatial cognition (correct choices, errors)” value [1] did it give?
Answer: significantly improved the deficit of spatial cognition

Question: And the “centrally acting cholinergic symptoms (tremor, chewing and yawning)” value ([2]; striatum study, young rats, i.p., data not shown)?
Answer: few centrally acting cholinergic symptoms

Question: And the “ACh content in perfusate increased up to” value ([2]; 10 mg/kg i.p.)?
Answer: 131%

Question: And the “ACh content in perfusate increased up to” value ([2]; 30 mg/kg i.p.)?
Answer: 369%

Question: And the “occupancy of 5HT3 receptor sites within the brain” value [3]?
Answer: occupies 5HT3 receptor sites within the brain

Question: And the “AChE activity Frontal cortex” value ([4]; 1 mg/kg p.o.)?
Answer: 48.1 nmol/min/mg protein

Question: And the “AChE activity Hippocampus” value ([4]; 1 mg/kg p.o.)?
Answer: 37.6 ± 0.8 nmol/min/mg protein

Question: What about the “AChE activity Parietal cortex” value ([4]; 1 mg/kg p.o.) of the same compound?
Answer: 27.3 ± 0.5 nmol/min/mg protein

Question: And the “AChE activity Striatim” value ([4]; 1 mg/kg p.o.)?
Answer: 238.9 nmol/min/mg protein

Question: What about the “AChE activity Frontal cortex” value ([4]; 3 mg/kg p.o.) of the same compound?
Answer: 56 nmol/min/mg protein

Question: What about the “AChE activity Hippocampus” value ([4]; 3 mg/kg p.o.) of the same compound?
Answer: 42.1 ± 1.3 nmol/min/mg protein

Question: What about the “AChE activity Parietal cortex” value ([4]; 3 mg/kg p.o.) of the same compound?
Answer: 31.3 ± 1.6 nmol/min/mg protein

Question: What about the “AChE activity Striatim” value ([4]; 3 mg/kg p.o.) of the same compound?
Answer: 219.9 nmol/min/mg protein

Question: And the “AChE activity Frontal cortex” value ([4]; 10 mg/kg p.o.)?
Answer: 58.4 nmol/min/mg protein

Question: What about the “AChE activity Hippocampus” value ([4]; 10 mg/kg p.o.) of the same compound?
Answer: 48.3 ± 2.9 nmol/min/mg protein

Question: What about the “AChE activity Parietal cortex” value ([4]; 10 mg/kg p.o.) of the same compound?
Answer: 32.6 ± 1.7 nmol/min/mg protein

Question: And the “AChE activity Striatim” value ([4]; 10 mg/kg p.o.)?
Answer: 274.0 nmol/min/mg protein

Question: And the “inhibition of AChE activity (text on Table 3)” value ([4]; p.o.)?
Answer: inhibition of AChE in a nondose dependent manner

Question: What about the “deficit of spatial learning (escape latency)” value [5] of the same compound?
Answer: improved the deficit of spatial learning

Question: What about the Blood biochemistry ([6]; F, four weeks) of the same compound?
Answer: ↑: TG

Question: And the “Clinical signs softstool” value ([6]; F, four weeks)?
Answer: ±

Question: And the Food consumption ([6]; F, four weeks)?
Answer: −

Question: And the Clinical signs vomiting ([6]; F)?
Answer: −

Question: What about the Blood biochemistry ([6]; M, four weeks) of the same compound?
Answer: ↑: TG

Question: And the “Clinical signs softstool” value ([6]; M, four weeks)?
Answer: −

Question: And the Food consumption ([6]; M, four weeks)?
Answer: −

Question: What about the Clinical signs vomiting ([6]; M) of the same compound?
Answer: −

Question: What about the “blood biochemical tests” value ([6]; four weeks) of the same compound?
Answer: small increase in TG

Question: And the “clinical signs” value ([6]; four weeks)?
Answer: minimal adverse clinical signs

Question: And the “food consumption and body weight” value ([6]; four weeks)?
Answer: no remarkable change in food consumption and body weight
